Our source for the IC50 values is article PMC12304311, “Sequence-based virtual screening using transformers” (Nature Communications, 2025).

In assay [1] the target is T1, EGFR L858R/T790M/C797S kinase (EGFR^LTC) (Homo sapiens, UniProt P00533, C797S/L858R/T790M). Kind of assay: biochemical. Set-up: HTRF KINASE-TK inhibition assay, EGFR L858R/T790M/C797S, ATP about Km, dose response. As to the method: A total of 25 nL of each compound was transferred to a 384-well reaction plate (Greiner, Cat#784075) using an Echo655 acoustic dispenser. […] The kinase solution was prepared in 1× kinase reaction buffer (comprising 5 mM MgCl₂, 1 mM DTT, and 1 mM MnCl₂), and 2.5 μL of this solution was added to each well. The plate was centrifuged at 140 g for 1 min and incubated at 25 °C for 10 min. […] This ATP level was selected in accordance with the Cheng-Prusoff equation (where ATP = Km, IC50 = 2Ki) to accurately reflect the inhibitory potency of test compounds. Then, 2.5 μL of the substrate-ATP mixture was added to each well, followed by centrifugation at 140 g for 1 min. The plate was sealed and incubated at 25 °C for 50 min. Subsequently, a 2× detection reagent mixture containing XL665 and anti-phospho-tyrosine antibody in detection buffer was prepared, and 5 μL of this solution was added to each well. The plate was centrifuged again (140 g, 1 min) and incubated at 25 °C for 60 min. Fluorescence emissions at 620 nm (Cryptate) and 665 nm (XL665) were measured using a microplate reader. Each assay condition was tested in duplicate. […] This was achieved by fitting the calculated percentage inhibition and the logarithm of the compound concentrations to a variable slope (four-parameter) nonlinear regression model. The model is expressed by the equation:3 Y=Bottom+Top−Bottom/1+10^LogIC50−X×Hill slope where X denotes the log of the inhibitor concentration and Y represents the percentage inhibition. Furthermore, the percentage of enzymatic activity in the presence of inhibitors, expressed as % Control, is derived by subtracting the % Inhibition from 100%.
T1 sequence (P00533 669-1210 T790M/C797S/L858R limits assumed): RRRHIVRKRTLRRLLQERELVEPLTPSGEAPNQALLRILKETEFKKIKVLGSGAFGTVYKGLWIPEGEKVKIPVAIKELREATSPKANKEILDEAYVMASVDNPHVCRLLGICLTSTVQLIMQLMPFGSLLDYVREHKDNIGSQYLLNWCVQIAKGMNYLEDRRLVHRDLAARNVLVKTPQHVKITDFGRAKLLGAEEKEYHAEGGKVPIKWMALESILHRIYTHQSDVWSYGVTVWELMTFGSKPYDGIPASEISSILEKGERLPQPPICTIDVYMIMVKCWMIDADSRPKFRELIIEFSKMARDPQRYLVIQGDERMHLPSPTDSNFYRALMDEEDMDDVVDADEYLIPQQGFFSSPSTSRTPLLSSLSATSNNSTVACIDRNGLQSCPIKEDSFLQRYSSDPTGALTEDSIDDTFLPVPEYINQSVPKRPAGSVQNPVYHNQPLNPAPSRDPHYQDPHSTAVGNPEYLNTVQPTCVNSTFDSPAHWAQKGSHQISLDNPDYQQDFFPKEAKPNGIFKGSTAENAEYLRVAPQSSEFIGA

Assay [2] deals with T1, EGFR L858R/T790M/C797S kinase (EGFR^LTC). Kind of assay: HTRF KINASE-TK in vitro kinase inhibition assay, dose response. Type of assay: biochemical. For orientation: TR-FRET usually uses a lanthanide donor and a delayed reading to cut background.

Molecules are shown by their SMILES. pIC50: −log10 of the molar value. Some results are limits rather than exact numbers.

One may read the pIC50 as the IC50 on a negative log10 scale, so that one unit is a factor of ten. Higher therefore signals a small IC50.

The compound `CC(C)N(C[C@H]1O[C@@H](n2cnc3c(N)ncnc32)[C@H](O)[C@@H]1O)[C@H]1C[C@@H](CCc2nc3cc(C(C)(C)C)ccc3[nH]2)C1` [C6] had a pIC50 in assay [1] of less than 5.00. In assay [1], `N[C@@H]1c2cccnc2[C@H](OC(=O)N2CCC(n3c(=O)[nH]c4ncccc43)CC2)CC[C@H]1c1cccc(F)c1F` [C8] gave a pIC50 of less than 5.00. On the same count and under the same terms, the result for `CC1(C)CCC(CN2CCN(c3ccc(C(=O)NS(=O)(=O)c4ccc(NCC5CCOCC5)c([N+](=O)[O-])c4)c(Oc4cnc5[nH]ccc5c4)c3)CC2)=C(c2ccc(Cl)cc2)C1` [C3] reads less than 5.00.

In assay [2], `COc1cc(N2CCC(N(C)C)CC2)ccc1Nc1ncc(Cl)c(Nc2ccccc2P(C)(C)=O)n1` [C10] gave a pIC50 of 8.92.

Consider `N#Cc1ccnc(Nc2cc(C3CCN(C4COC4)CC3)cc(N3CCC(F)(F)C3)n2)c1` [C11], for which the pIC50 in assay [2] was more than 5.00; in assay [1], 6.97.

`CCc1cc(Nc2nccc(-c3c(-c4ccc(OC)c(C(=O)Nc5c(F)cccc5F)c4)nc4ccccn34)n2)c(OC)cc1N1CCC(N2CCN(S(C)(=O)=O)CC2)CC1` [C7]: the negative logarithm of the IC50 (pIC50) is more than 5.00 in assay [2] and 5.45 in assay [1]. The compound `CN(C)CC#Cc1ccc(OCCCc2sc(N3CCc4cccc(C(=O)Nc5nc6ccccc6s5)c4C3)nc2C(=O)O)c(F)c1` [C2] gave a pIC50 in assay [1] of less than 5.00. `CC(=O)c1cnc2ccc(-c3cc(Cl)c(O)c(Cl)c3)nc2c1N[C@H]1CC[C@H](CN(C)C)CC1` [C1]: the pIC50 in assay [2] is 8.26. In the case of `COc1cc2nccc(Oc3ccc(NC(=O)c4cn(C(C)C)c(=O)n(-c5ccc(F)cc5)c4=O)cc3F)c2cc1OC` [C5], the pIC50 in assay [2] was more than 5.00; in assay [1] it was 5.56. `CC(=O)O[C@]1(C(C)=O)CC[C@H]2[C@@H]3CCC4=CC(=O)CCC4=C3[C@@H](c3ccc(N(C)C)cc3)C[C@@]21C` [C9] gave a pIC50 in assay [1] of less than 5.00.
